Tests used:
Assay type in all cases: functional, cell-based
[1] = system: A498; experiment: Cytotoxicity against human A498 cells after 72 hrs by MTT assay; settings: A498, 72 h
[2] = Cytotoxicity against human PANC1 cells after 72 hrs by MTT assay; settings: PANC-1, 72 h
[3] = system: ACHN; experiment: Cytotoxicity against human ACHN cells after 72 hrs by MTT assay

| SMILES | IC50 [1] | IC50 [2] | IC50 [3] |
| --- | --- | --- | --- |
| CO[C@H]1C[C@@H]2CC[C@@H](C)[C@@](O)(O2)C(=O)C(=O)N2CCCC[C@H]2C(=O)O[C@H]([C@H](C)C[C@@H]2CC[C@@H](OC(=O)C(C)(CO)CO)[C@H](OC)C2)CC(=O)[C@H](C)/C=C(\C)[C@@H](O)[C@@H](OC)C(=O)[C@H](C)C[C@H](C)/C=C/C=C/C=C/1C [TEMSIROLIMUS] | 0.35 µM | – | – |
| C=C(CCC=C(C)C)[C@H](O)[C@@H]1CC(C)=C[C@]2(C=C(CO)[C@H]3CC(=O)C(C)=C[C@H]3O2)O1 | 17.3 µM | 50 µM | > 50 µM |
| CC(C)=CCC/C(C)=C/[C@@H]1CC(C)=C[C@]2(C=C(CO)[C@H]3CC(=O)C(C)=C[C@H]3O2)O1 | 4.4 µM | 13.5 µM | 3 µM |
| C=C(C)[C@@H](CC/C(C)=C/[C@@H]1CC(C)=C[C@]2(C=C(CO)[C@H]3CC(=O)C(C)=C[C@H]3O2)O1)OO | > 50 µM | > 50 µM | > 50 µM |
| CCN(CC)CCNC(=O)c1c(C)[nH]c(/C=C2\C(=O)Nc3ccc(F)cc32)c1C [SUNITINIB MALATE] | – | – | 2 µM |
| C=C(CCC1OC1(C)C)[C@H](Br)[C@@H]1CC(C)=C[C@]2(C=C(CO)[C@H]3CC(=O)C(C)=C[C@H]3O2)O1 (stereo not given in full) | 18.7 µM | 11.4 µM | 24.4 µM |
| O=c1[nH]cc(F)c(=O)[nH]1 [FLUOROURACIL] | – | 50 µM | – |

— ChEMBL document CHEMBL3352161, “Phorbaketals L-N, cytotoxic sesterterpenoids isolated from the marine sponge of the genus Phorbas” (Bioorg Med Chem Lett, 2014)
